This is an account of results in ChEMBL document CHEMBL3399997 (Bioorg Med Chem Lett, 2015).

Assay type in all cases: physicochemical
Data set [1] in a line: Antioxidant activity assessed as rate constant for singlet oxygen radical scavenging activity using 4-HO-TEMP spin trap by ESR spin-trapping method.
Data set [2] in a line: Antioxidant activity assessed as methyl radical scavenging activity by measuring relative rate constant (kAOx/kST ratio) using DMPO spin trap by ESR spin-trapping method.
A short description of data set [3]: Antioxidant activity assessed as superoxide anion radical scavenging activity by measuring relative rate constant (kAOx/kST ratio) using CYPMPO spin trap by ESR spin-trapping method.
Data set [4] in a line: Antioxidant activity assessed as singlet oxygen radical scavenging activity by measuring relative rate constant (kAOx/kST ratio) using 4-HO-TEMP spin trap by ESR spin-trapping method.
Data set [5] is described as follows: Antioxidant activity assessed as rate constant for hydroxyl radical scavenging activity using DMPO spin trap by ESR spin-trapping method.
A short description of data set [6]: Antioxidant activity assessed as rate constant for methyl radical scavenging activity using DMPO spin trap by ESR spin-trapping method.
A short description of data set [7]: Antioxidant activity assessed as peroxyl radical scavenging activity by measuring relative rate constant (kAOx/kST ratio) using CYPMPO spin trap by ESR spin-trapping method.
Data set [8] in a line: Antioxidant activity assessed as hydroxyl radical scavenging activity by measuring relative rate constant (kAOx/kST ratio) using DMPO spin trap by ESR spin-trapping method.
Data set [9] is described as follows: Antioxidant activity assessed as rate constant for alkoxyl radical scavenging activity using DMPO spin trap by ESR spin-trapping method.
Data set [10] in a line: Antioxidant activity assessed as rate constant for superoxide anion radical scavenging activity using CYPMPO spin trap by ESR spin-trapping method.
Data set [11] is described as follows: Antioxidant activity assessed as alkoxyl radical scavenging activity by measuring relative rate constant (kAOx/kST ratio) using DMPO spin trap by ESR spin-trapping method.

On to `NC(Cc1ccc(O)c(O)c1)C(=O)O` (racemic), for which the K came to 7.59 ×10⁶ /M/s in data set [1]; 4.11 ×10¹⁰ /M/s in data set [5]; 2.55 ×10⁷ /M/s in data set [6]; 3.57 ×10⁴ /M/s in data set [9]; 3.3 ×10⁴ /M/s in data set [10]. Also, the Ratio is 1.82 in data set [2]; 687 in data set [3]; 84.4 in data set [4]; 32.5 in data set [7]; 14.7 in data set [8]; 28.1 in data set [11].
`N[C@@H](Cc1ccc(O)c(O)c1)C(=O)O` [LEVODOPA]: the K in data set [1] was 1.93 ×10⁷ /M/s; in data set [5] it was 2.55 ×10⁹ /M/s; in [6], 2.59 ×10⁷ /M/s; in [9], 3.48 ×10⁴ /M/s; in [10], 2.07 ×10⁵ /M/s. For the same compound, the Ratio worked out at 1.85 in [2]; 4308 in data set [3]; 215 in data set [4]; 19.3 in data set [7]; 0.91 in [8]; 27.4 in data set [11].
